The source of these data is patent US20060246104A1, “Stable rgd peptidomimetic composition” (priority 2003, published 2006).

For data set [1], the system named is trypsin. Briefly: Enzymatic stability in trypsin solution, MALDI-TOF mass spectrometry. It is filed as in vitro ADME. To be noted: for decrease in mass peak size after treatment with trypsin / mass peak intensity after trypsin exposure / degradation after prolonged trypsin exposure / mass peak intensity after prolonged trypsin exposure: 0.05 mM trypsin; for decrease in mass peak size after treatment with trypsin / mass peak intensity after trypsin exposure / mass peak intensity before trypsin exposure: 1 hr, 37° C.; for mass peak intensity after trypsin exposure / mass peak intensity before trypsin exposure: HEPES pH 8, 0.4 mM; for degradation after prolonged trypsin exposure / mass peak intensity after prolonged trypsin exposure / mass peak intensity before prolonged trypsin exposure: 16 hrs, room temperature; for mass peak intensity before trypsin exposure / mass peak intensity before prolonged trypsin exposure: control without trypsin. As for the experimental part:
GRGDSP and AAGPAHA were mixed with trypsin solution in HEPES buffer (10 mM, pH=8) to a final solution of 0.4 mM peptide and 0.05 mM (0.12%) trypsin and incubated at 37° C. for 1 hr. In a control experiment, both peptides were dissolved in the same buffer without trypsin at the same final concentrations and incubated at 37° C. for 1 hr. Similarly, in another set of experiments, the same samples were incubated at room temperature overnight. At the end of the incubation period, trypsin activity was quenched by adding inhibitor; and the samples were analyzed by MALDI-TOF mass spectrometry to assess the extent of degradation.

For data set [2], the system named is 3T3 fibroblasts. Nature of the data set: Cell adhesion assay (cell area coverage on surface-immobilized substrates). It is filed as cell-based. The conditions noted are these: substance surface-immobilized on tissue culture plastic; 3T3 cells, 24 hrs; relative to untreated tissue culture plastic. The text has this:
For this study, we immobilized AAGPAHA and the peptide GRGDSP on dextran-coated tissue culture plastic dishes in a series of steps shown in FIGS. 2-4. Multi-well cell culture dishes were first surface-aminated by adsorbing poly-lysine (FIG. 2). Dextran was then immobilized on these surfaces (FIG. 3) using reported methods (Massia, Biomaterials 21:2753-61, 2000). AAGPAHA and GRGDSP were then surface-immobilized on dextran-coated tissue culture plastic (FIG. 4) using reported methods (Massia, J Biomed Mater Res 56:390-99, 2001). Dextran substrates were activated by oxidation of the glucose subunits (Glc) with sodium metaperiodate to convert Glc subunits to […]. […]
Cell area coverage assays were performed to assess the extent of 3T3 cell adhesion and spreading on all substrates. […] Following incubation, samples were fixed (3.8% formaldehyde in phosphate buffered saline (PBS) for 5 min. and stained with 0.1% aqueous toluidine blue (5 min). Stained cells were then examined using phase contrast or stereomicroscopy (Leica) at 100× magnification. Three random 100× fields were selected for each substrate for analysis. The extent of cell adhesion was determined for each captured digital image by calculating a percentage of cell area coverage using digital image analysis software. Final data were presented as a percentage of control adhesion. […]

The subject of data set [3] is 3T3 cell adhesion and spreading (integrin-mediated). Nature of the data set: Cell adhesion inhibition assay (soluble competitor against grafted substrate). To be noted: soluble GRGDSP 1 mg/mL, 3T3 cells, 24 hrs. It is filed as cell-based. As for the experimental part:
The cell line utilized in these studies were 3T3 fibroblasts (ATCC # CRL-6476, Manassas, Va.). 3T3 cells were maintained in Dulbecco's modified Eagle medium (DMEM) with 10% fetal bovine serum (FBS) at 37° C. in saturated humidity. All cell culture media and reagents were obtained from Life Technologies, Inc. (Rockville, Md.).
Cell area coverage assays were performed to assess the extent of 3T3 cell adhesion and spreading on all substrates. 3T3 cells were seeded on 24-well culture dishes (15,000 cells/well) and incubated for 24 hrs. Following incubation, samples were fixed (3.8% formaldehyde in phosphate buffered saline (PBS) for 5 min. and stained with 0.1% aqueous toluidine blue (5 min). Stained cells were then examined using phase contrast or stereomicroscopy (Leica) at 100× magnification. Three random 100× fields were selected for each substrate for analysis. The extent of cell adhesion was determined for each captured digital image by calculating a percentage of cell area coverage using digital image analysis software. Final data were presented as a percentage of control adhesion.
The percentage of control adhesion was calculated by multiplying the ratio of % area coverage on dextran-coated, peptide-grafted, or peptidomimetic-grafted substrates to % cell area coverage on untreated tissue culture plastic by 100. […]

In the case of `N=C(N)NCCCC(N)C(=O)NCCCCC(N)C(=O)O` (stereo not shown) [AAGPAHA, 2-amino-6-[(2-amino-5{guanidino}pentanoyl)amino]hexanoic acid], in data set [1], the “decrease in mass peak size after treatment with trypsin” value is listed as “no significant change”, the “mass peak intensity after trypsin exposure” value is given as “the same”, the “degradation after prolonged trypsin exposure” value is “highly resistant to trypsin-mediated degradation” and the “mass peak intensity after prolonged trypsin exposure” value was “the same”. For the same molecule, in data set [1], the “mass peak intensity before trypsin exposure” value was 1.2×10^4 and the “mass peak intensity before prolonged trypsin exposure” value is on record as 1.2×10^4. The “percentage of control adhesion (cell area coverage)” value in data set [2] came to 105.9±12.8 % control.

In the case of GRGDSP, in data set [1], the “decrease in mass peak size after treatment with trypsin” value is recorded as 73%, the “mass peak intensity after trypsin exposure” value is 4.0×10^3, the “degradation after prolonged trypsin exposure” value is given as “about 98%” and the “mass peak intensity after prolonged trypsin exposure” value was 3.0×10^2. In data set [1], the “mass peak intensity before trypsin exposure” value is recorded as 1.5×10^4 and the “mass peak intensity before prolonged trypsin exposure” value is reported as 1.5×10^4. In addition, the “percentage of control adhesion on surface-immobilized AAGPAHA in presence of soluble compound” value in data set [3] is listed as 5.7%±6.9%. The “percentage of control adhesion on surface-immobilized AAGPAHA in presence of soluble compound” value in data set [3] (listed as RGD peptide) is recorded as “decreased cell coverage”. In addition, in data set [2], the “percentage of control adhesion (cell area coverage)” value turned out to be 124.3±4.1 % control.
